Measurements: ChEMBL document CHEMBL1157117, “Synthesis of [11C]SSR149415 and preliminary imaging studies using positron emission tomography” (Bioorg Med Chem Lett, 2010)

Experiments:
[1] = Fraction unbound in baboon plasma; assay type: ADME, cell-free; details: papio anubis
[2] = Octanol/water partition coefficient, log D of the compound; assay type: physicochemical
[3] = Metabolic stability in baboon blood at 2.5+/-0.8 mCi, iv after 10 mins; assay type: ADME, organism-based; details: papio anubis, read-out: Stability
[4] = Biodistribution in baboon spleen at 2.5+/-0.8 mCi, iv followed by second dose administered > 2 hrs after initial dose measured per cc after 90 mins; assay type: ADME, organism-based; details: papio anubis, in vivo, 1.5 h
[5] = Biodistribution in baboon lung at 2.5+/-0.8 mCi, iv followed by second dose administered > 2 hrs after initial dose measured per cc after 90 mins; assay type: ADME, organism-based; details: papio anubis, in vivo, 1.5 h
[6] = Biodistribution in baboon liver at 2.5+/-0.8 mCi, iv followed by second dose administered > 2 hrs after initial dose measured per cc after 90 mins; assay type: ADME, organism-based; details: papio anubis, in vivo, 1.5 h
[7] = Biodistribution in baboon heart at 2.5+/-0.8 mCi, iv followed by second dose administered > 2 hrs after initial dose measured per cc after 90 mins; assay type: ADME, organism-based; details: papio anubis, in vivo, 1.5 h
[8] = Selectivity ratio of vasopressin V1b receptor over oxytocin receptor
[9] = Selectivity ratio of vasopressin V1b receptor over vasopressin V1a receptor
[10] = Selectivity ratio of vasopressin V1b receptor over vasopressin V2 receptor

| fraction unbound [1] | logD [2] | remaining at 10 min [3] [%] | Drug uptake [4] [%ID] | Drug uptake [5] [%ID] | Drug uptake [6] [%ID] | Drug uptake [7] [%ID] | Ratio [8] | Ratio [9] | Ratio [10] | SMILES |
| --- | --- | --- | --- | --- | --- | --- | --- | --- | --- | --- |
| 0.0254 | 3.22 | 50 |  |  |  |  |  |  |  | COc1ccccc1[C@@]1(N2C[C@H](O)C[C@H]2C(=O)N(C)C)C(=O)N(S(=O)(=O)c2ccc(O[11CH3])cc2OC)c2ccc(Cl)cc21 |
|  |  |  | 0.01 | 0.01 | 0.1 | 0.01 | 100 | 100 | 100 | COc1ccc(S(=O)(=O)N2C(=O)[C@@](c3ccccc3OC)(N3C[C@H](O)C[C@H]3C(=O)N(C)C)c3cc(Cl)ccc32)c(OC)c1 [NELIVAPTAN] |
